Data reported in ChEMBL document CHEMBL6087461, “Cell-Permeable Peptide Inhibitors of the p53-hDM2 Interaction via Foldamer Helix Mimicry and Bis-Thioether Stapling” (J Med Chem, 2025).
Active and inactive are the calls of the source. The calls are words filed in the database; no cut-off is given here. Starred links: 1 amine or outer side, 2 acyl side, 3 side chain; linkers in the order of their positions; H or OH if unused. Positions of bridges follow the written chain, without caps; N, C: chain ends. Residues, ends and D or L forms follow the SMILES beside them. *: point of attachment. X2 = CC(C)[C@@H](CNC(N)=O)NC(=O)NC[C@H](C)NC(=O)NC[C@H](CSCC(=O)NCCNC(=O)C[*:1])N[*:2]; X1 = CC(C)[C@@H](CNC(N)=O)NC(=O)NC[C@H](C)NC(=O)NC[C@H](CSCCCCCC[*:1])N[*:2]; X6 = CC(C)[C@@H](CNC(N)=O)NC(=O)NC[C@H](CSCCCCCC[*:1])NC(=O)NC[C@H](C)N[*:2]; X5 = CC(C)[C@@H](CNC(N)=O)NC(=O)NC[C@H](C)NC(=O)NC[C@H](CSCCC[*:1])N[*:2]; X3 = CC(C)[C@@H](CNC(N)=O)NC(=O)NC[C@H](C)NC(=O)NC[C@H](C)N*; NH(CH2CH2O)2(CH2)6Cl = ClCCCCCCOCCOCCN*; Suc = O=C(CCC(=O)[*:2])[*:1]; X4 = C(C[*:1])C[*:2]

Experiments:
[1] = Permeability in human HeLa cells transfected with Halo-GFP-Mito assessed as accumulation in cytosol measured after 4 hrs incubation by chloroalkane penetration assay; assay type: ADME, subcellular
[2] = PROTAC activity at human DM2/p53 extracted from Escherichia coli interaction by measuring inhibition of interaction by time-resolved fluorescence energy transfer (TRFRET) detection method
[3] = target: Tumour suppressor protein p53/Mdm4 (Homo sapiens) (UniProt P04637+O15151); experiment: PROTAC activity at human DMX/p53 extracted from Escherichia coli interaction at 100 nM by measuring inhibition of interaction by time-resolved fluorescence energy transfer (TRFRET) detection method relative to control; assay type: protein assay
[4] = target: Tumour suppressor p53/oncoprotein Mdm2 (Homo sapiens) (UniProt P04637+Q00987); experiment: PROTAC activity at human MDM2/p53 extracted from Escherichia coli interaction by measuring inhibition of interaction at 100 nM by time-resolved fluorescence energy transfer (TRFRET) detection method relative to control; assay type: protein assay
[5] = target: Tumour suppressor protein p53/Mdm4 (Homo sapiens, UniProt O15151); experiment: PROTAC activity at human DMX/p53 extracted from Escherichia coli interaction by measuring inhibition of interaction by time-resolved fluorescence energy transfer (TRFRET) detection method; assay type: protein assay
[6] = system: HCT-116; experiment: Effect on increase in […] RNA level in human HCT-116 cells at 10 uM measured after 6 hrs by RT-qPCR analysis; assay type: functional, cell-based
[7] = system: HCT-116; experiment: Effect on increase in p21 RNA level in human HCT-116 cells at 10 uM measured after 6 hrs by RT-qPCR analysis; assay type: functional, cell-based
[8] = system: SW480; experiment: Cytotoxicity against human SW480 cells expressing […] assessed as cell viability at 0.1 to 40 uM measured after 72 hrs incubation by MTS cell viability assay; assay type: functional, cell-based; settings: dose 0.1-40 µM
[9] = system: MCF7; experiment: Cytotoxicity against human MCF7 cells expressing wild type p53 and overexpressing human DMX assessed as cell viability measured after 72 hrs incubation by MTS cell viability assay; assay type: functional, cell-based
[10] = system: HCT-116; experiment: Cytotoxicity against human HCT116 cells expressing wild type p53 and overexpressing human DM2 assessed as cell viability measured after 72 hrs incubation by MTS cell viability assay; assay type: functional, cell-based
[11] = system: HCT-116; experiment: Cytotoxicity against human HCT-116 cells assessed as cell viability at 100 uM by MTS cell viability assay; assay type: functional, cell-based

Tumour suppressor protein p53/Mdm4, sequence (P04637 whole entry): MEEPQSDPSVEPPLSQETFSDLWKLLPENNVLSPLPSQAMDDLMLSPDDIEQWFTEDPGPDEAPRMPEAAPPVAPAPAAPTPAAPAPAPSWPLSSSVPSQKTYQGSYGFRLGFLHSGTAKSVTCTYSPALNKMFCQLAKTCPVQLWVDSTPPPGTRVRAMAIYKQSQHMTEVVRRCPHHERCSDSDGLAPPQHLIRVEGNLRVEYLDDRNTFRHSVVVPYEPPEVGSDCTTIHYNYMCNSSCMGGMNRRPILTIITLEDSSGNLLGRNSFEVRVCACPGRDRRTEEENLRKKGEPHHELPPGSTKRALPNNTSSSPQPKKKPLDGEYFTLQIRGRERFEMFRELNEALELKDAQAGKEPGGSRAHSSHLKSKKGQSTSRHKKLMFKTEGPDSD
Tumour suppressor protein p53/Mdm4, sequence (O15151 whole entry): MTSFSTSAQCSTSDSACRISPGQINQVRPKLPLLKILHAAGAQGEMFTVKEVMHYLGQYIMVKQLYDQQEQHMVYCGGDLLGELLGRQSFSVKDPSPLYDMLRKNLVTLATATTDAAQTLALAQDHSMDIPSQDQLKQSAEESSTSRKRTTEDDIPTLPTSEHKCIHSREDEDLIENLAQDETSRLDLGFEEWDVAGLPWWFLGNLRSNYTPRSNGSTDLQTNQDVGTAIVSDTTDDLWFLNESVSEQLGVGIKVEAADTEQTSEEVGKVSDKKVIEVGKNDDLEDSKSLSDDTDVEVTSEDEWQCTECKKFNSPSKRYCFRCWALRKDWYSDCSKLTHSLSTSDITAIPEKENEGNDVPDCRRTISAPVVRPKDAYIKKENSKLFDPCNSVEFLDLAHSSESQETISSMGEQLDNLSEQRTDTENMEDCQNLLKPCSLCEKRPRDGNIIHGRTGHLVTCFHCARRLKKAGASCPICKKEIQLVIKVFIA
Tumour suppressor p53/oncoprotein Mdm2 (Homo sapiens), sequence (P04637 whole entry, looked up): as the sequence (P04637 whole entry) above
Tumour suppressor p53/oncoprotein Mdm2 (Homo sapiens), sequence (Q00987 whole entry, looked up): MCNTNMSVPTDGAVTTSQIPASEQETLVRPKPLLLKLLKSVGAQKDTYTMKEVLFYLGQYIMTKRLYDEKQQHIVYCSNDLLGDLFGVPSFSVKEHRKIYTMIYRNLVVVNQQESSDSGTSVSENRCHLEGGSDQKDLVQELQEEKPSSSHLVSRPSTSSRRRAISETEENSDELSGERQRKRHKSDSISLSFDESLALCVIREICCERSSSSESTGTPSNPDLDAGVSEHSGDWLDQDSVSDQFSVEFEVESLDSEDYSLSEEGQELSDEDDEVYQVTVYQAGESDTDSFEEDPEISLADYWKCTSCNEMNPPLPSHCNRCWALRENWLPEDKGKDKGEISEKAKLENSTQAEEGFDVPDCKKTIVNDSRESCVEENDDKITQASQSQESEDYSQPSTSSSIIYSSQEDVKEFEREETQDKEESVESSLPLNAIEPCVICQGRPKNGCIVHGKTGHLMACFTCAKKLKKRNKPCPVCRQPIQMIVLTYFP
Tumour suppressor protein p53/Mdm4 (Homo sapiens), sequence (O15151 whole entry, looked up): as the sequence (O15151 whole entry) above
Tumour suppressor protein p53/Mdm4 (Homo sapiens), sequence (P04637 whole entry, looked up): as the sequence (P04637 whole entry) above

Structure (SMILES)	EC50 [1] [µM]	IC50 [2] [µM]	inhibition [3] [%]	inhibition [4]	IC50 [5] [µM]	further results
N[C@@H](Cc1c[nH]c2ccccc12)C(=O)O [TRYPTOPHAN]	0.087					
CC(C)[C@@H](CNC(N)=O)NC(=O)NC[C@H](C)NC(=O)NC[C@@H]1CSCCCSC[C@H](NC(=O)[C@H](Cc2ccccc2)NC(=O)[C@H](CO)NC(=O)[C@@H](N)[C@@H](C)O)C(=O)N[C@@H](CCC(=O)O)C(=O)N[C@@H](Cc2ccc(O)cc2)C(=O)N[C@@H](Cc2c[nH]c3ccccc23)C(=O)N1 (H-TSFCEYW; linker 4-C via X5)		0.0256	50	86%	108	
CC(C)[C@@H](CNC(N)=O)NC(=O)NC[C@H](C)NC(=O)NC[C@@H]1CSCCCCCCSC[C@H](NC(=O)[C@H](Cc2ccccc2)NC(=O)[C@@H](NC(=O)[C@H](CCCCN)NC(=O)CCC(=O)NCCOCCOCCCCCCCl)[C@@H](C)O)C(=O)N[C@@H](CCC(=O)O)C(=O)N[C@@H](Cc2ccc(O)cc2)C(=O)N[C@@H](Cc2c[nH]c3ccccc23)C(=O)N1 ({NH(CH2CH2O)2(CH2)6Cl-Suc}-KTFCEYW; linker 4-C via X1)	0.51					
CC(C)[C@@H](CNC(N)=O)NC(=O)NC[C@@H]1CSCCCCCCSC[C@H](NC(=O)[C@H](C)NC(=O)[C@H](Cc2ccccc2)NC(=O)[C@H](CO)NC(=O)[C@@H](N)[C@@H](C)O)C(=O)N[C@@H](Cc2ccc(O)cc2)C(=O)N[C@@H](Cc2c[nH]c3ccccc23)C(=O)N[C@@H](C)CNC(=O)N1 (H-TSFACYW; linker 5-C via X6)		0.0331	11	86%	196	
COc1ccc(C2=N[C@@H](c3ccc(Cl)cc3)[C@@H](c3ccc(Cl)cc3)N2C(=O)N2CCNC(=O)C2)c(OC(C)C)c1						Activity [6]: Active; Activity [7]: Active
CC(C)[C@@H](CNC(N)=O)NC(=O)NC[C@H](C)NC(=O)NC[C@@H]1CSCCCCCCSC[C@H](NC(=O)[C@H](Cc2ccccc2)NC(=O)[C@H](CO)NC(=O)[C@H](CCCCN)NC(=O)[C@@H](N)CCCCN)C(=O)N[C@@H](CCC(=O)O)C(=O)N[C@@H](Cc2ccc(O)cc2)C(=O)N[C@@H](Cc2c[nH]c3ccccc23)C(=O)N1 (H-KKSFCEYW; linker 5-C via X1)		0.00895		inactive	45.4	Activity [8]: Active; Activity [3]: inactive
CC(C)[C@@H](CNC(N)=O)NC(=O)NC[C@H](C)NC(=O)NC[C@H](C)NC(=O)[C@H](Cc1c[nH]c2ccccc12)NC(=O)[C@H](Cc1ccc(O)cc1)NC(=O)[C@@H]1CSCCCSC[C@H](N)C(=O)N[C@@H](CO)C(=O)N[C@@H](Cc2ccccc2)C(=O)N[C@@H](C)C(=O)N1 (H-CSFACYW-X3; linker 1-5 via X4)		0.0234	68	98%	80	
CC(C)[C@@H](CNC(N)=O)NC(=O)NC[C@H](C)NC(=O)NC[C@@H]1CSCC(=O)NCCNC(=O)CSC[C@H](NC(=O)[C@H](Cc2ccccc2)NC(=O)[C@H](CO)NC(=O)[C@H](CCCCN)NC(=O)[C@H](CCCNC(=N)N)NC(=O)[C@H](CCCNC(=N)N)NC(=O)[C@@H](N)CCCNC(=N)N)C(=O)N[C@@H](CCC(=O)O)C(=O)N[C@@H](Cc2ccc(O)cc2)C(=O)N[C@@H](Cc2c[nH]c3ccccc23)C(=O)N1 (H-RRRKSFCEYW; linker 7-C via X2)		0.0036	98	99%	10.3	Activity [9]: inactive; Activity [10]: Not active; Compound Was Poorly Active Even At High Concentration
CC(C)[C@@H](CNC(N)=O)NC(=O)NC[C@H](C)NC(=O)NC[C@H](C)NC(=O)[C@H](Cc1c[nH]c2ccccc12)NC(=O)[C@H](Cc1ccc(O)cc1)NC(=O)[C@H](CCC(=O)O)NC(=O)[C@H](C)NC(=O)[C@H](Cc1ccccc1)NC(=O)[C@H](CO)NC(=O)[C@@H](N)[C@@H](C)O (H-TSFAEYW-X3)		0.0238	61	97%	82	
CC(C)[C@@H](CNC(N)=O)NC(=O)NC[C@H](C)NC(=O)NC[C@@H]1CSCCCCCCSC[C@H](NC(=O)[C@H](Cc2ccccc2)NC(=O)[C@H](CO)NC(=O)[C@@H](N)[C@@H](C)O)C(=O)N[C@@H](CCC(=O)O)C(=O)N[C@@H](Cc2ccc(O)cc2)C(=O)N[C@@H](Cc2c[nH]c3ccccc23)C(=O)N1 (H-TSFCEYW; linker 4-C via X1)		0.0193	52	97%	127	Activity [9]: inactive; Activity [11]: inactive; Activity [10]: inactive
CC(C)[C@@H](CNC(N)=O)NC(=O)NC[C@H](C)NC(=O)NC[C@@H]1CSCCCCCCSC[C@H](NC(=O)[C@H](Cc2ccccc2)NC(=O)[C@H](CO)NC(=O)[C@H](CCCCN)NC(=O)[C@H](CCCNC(=N)N)NC(=O)[C@H](CCCNC(=N)N)NC(=O)[C@H](CCCNC(=N)N)NC(=O)CCC(=O)NCCOCCOCCCCCCCl)C(=O)N[C@@H](CCC(=O)O)C(=O)N[C@@H](Cc2ccc(O)cc2)C(=O)N[C@@H](Cc2c[nH]c3ccccc23)C(=O)N1 ({NH(CH2CH2O)2(CH2)6Cl-Suc}-RRRKSFCEYW; linker 7-C via X1)	1.9					
CC(C)[C@@H](CNC(N)=O)NC(=O)NC[C@H](C)NC(=O)NC[C@@H]1CSCC(=O)NCCNC(=O)CSC[C@H](NC(=O)[C@H](Cc2ccccc2)NC(=O)[C@H](CO)NC(=O)[C@@H](N)[C@@H](C)O)C(=O)N[C@@H](CCC(=O)O)C(=O)N[C@@H](Cc2ccc(O)cc2)C(=O)N[C@@H](Cc2c[nH]c3ccccc23)C(=O)N1 (H-TSFCEYW; linker 4-C via X2)		0.0101	91	99%	28	Activity [11]: inactive
CC(C)[C@@H](CNC(N)=O)NC(=O)NC[C@H](C)NC(=O)NC[C@@H]1CSCC(=O)NCCNC(=O)CSC[C@H](NC(=O)[C@H](Cc2ccccc2)NC(=O)[C@H](CO)NC(=O)[C@H](CCCCN)NC(=O)[C@H](CCCNC(=N)N)NC(=O)[C@H](CCCNC(=N)N)NC(=O)[C@H](CCCNC(=N)N)NC(=O)CCC(=O)NCCOCCOCCCCCCCl)C(=O)N[C@@H](CCC(=O)O)C(=O)N[C@@H](Cc2ccc(O)cc2)C(=O)N[C@@H](Cc2c[nH]c3ccccc23)C(=O)N1 ({NH(CH2CH2O)2(CH2)6Cl-Suc}-RRRKSFCEYW; linker 7-C via X2)	3.3					
CC(C)[C@@H](CNC(N)=O)NC(=O)NC[C@H](C)NC(=O)NC[C@H](C)NC(=O)[C@H](Cc1c[nH]c2ccccc12)NC(=O)[C@H](Cc1ccc(O)cc1)NC(=O)[C@H](CCC(=O)O)NC(=O)[C@H](C)NC(=O)[C@H](Cc1ccccc1)NC(=O)[C@@H](NC(=O)[C@H](CCCCN)NC(=O)CCC(=O)NCCOCCOCCCCCCCl)[C@@H](C)O ({NH(CH2CH2O)2(CH2)6Cl-Suc}-KTFAEYW-X3)	1.95					
CC(C)[C@@H](CNC(N)=O)NC(=O)NC[C@H](C)NC(=O)NC[C@H](C)NC(=O)[C@H](Cc1c[nH]c2ccccc12)NC(=O)[C@H](Cc1ccc(O)cc1)NC(=O)[C@@H]1CSCCCSC[C@H](NC(=O)[C@@H](N)[C@@H](C)O)C(=O)N[C@@H](Cc2ccccc2)C(=O)N[C@@H](C)C(=O)N1 (H-TCFACYW-X3; linker 2-5 via X4)		0.109	20	41%	763	
